From patent US8829202B2, “Condensed polycyclic aromatic compound, aromatic polymer, and method for synthesizing aromatic compound” (Teijin Limited, priority 2011, dated 2014)
“And” between values parts separate entries of the source, which are not always exact repeats. Identical values can stand only once.

Experiment: Solubility of the obtained compound in chloroform
Assay type: physicochemical
Conditions: solvent chloroform

| Molecule | solubility in chloroform |
| --- | --- |
| Di-triisopropylsilylethane-substituted DNTT | 0.51 wt % |
| CCCCCCCCCCCCC#Cc1c2ccccc2cc2sc3c(sc4cc5ccccc5c(C#CCCCCCCCCCCCC)c43)c12 [di-1-tetradysine-substituted DNTT, di-1-tetradecyne-substituted DNTT] | 6.5 wt % |
| CC[Si](C#Cc1c2ccccc2cc2sc3c(sc4cc5ccccc5c(C#C[Si](CC)(CC)CC)c43)c12)(CC)CC [Di-triethylsilylacetylene-substituted DNTT] | 0.10 wt % and 0.13 wt % |
| Di-triisopropylsilylacetylene-substituted dinaphthothienothiophene [di-TIPS-substituted DNTT] | 0.2 wt % |
| C[Si](C)(C)C#Cc1c2ccccc2cc2sc3c(sc4cc5ccccc5c(C#C[Si](C)(C)C)c43)c12 [Di-trimethylsilylacetylene-substituted DNTT] | 0.05 wt % |
| CCCCCCCCC#Cc1c2ccccc2cc2sc3c(sc4cc5ccccc5c(C#CCCCCCCCC)c43)c12 [di-1-dysine-substituted DNTT, Di-1-dysine-substituted dinaphthothienothiophene] | 2.3 wt % |
| CCCCCCCCCCc1c2ccccc2cc2sc3c(sc4cc5ccccc5c(CCCCCCCCCC)c43)c12 [di-decane-substituted DNTT] | 0.05 wt % |

Same assay, conditions: solvent chloroform; DNTT used as raw material

| Molecule | solubility in chloroform (in words) |
| --- | --- |
| c1ccc2cc3c(cc2c1)sc1c2cc4ccccc4cc2sc31 [DNTT, Dinaphthothienothiophene, reference compound] | substantially not dissolved |

Same assay, conditions: solvent chloroform; listed as di-1-tetradesyne-substituted DNTT

| Molecule | solubility in chloroform [wt %] |
| --- | --- |
| CCCCCCCCCCCCC#Cc1c2ccccc2cc2sc3c(sc4cc5ccccc5c(C#CCCCCCCCCCCCC)c43)c12 [di-1-tetradysine-substituted DNTT, di-1-tetradecyne-substituted DNTT] | 1.67 |
